Source: patent US9491960B2, “Sweetener” (Tate & Lyle Ingredients Americas LLC, priority 2013, dated 2016)
Where two headings read alike, the source gives them in different places. Marks after values point to notes of the source that are not given here.

Key:
[1] = cited from earlier work
[2] = Round table sensory evaluation by test panelists: sucrose equivalent value (SEV) against sucrose reference samples; format: in vivo; conditions: for Sweetness (mean SEV, Duncan grouping) / Sweetness (mean SEV, two-way ANOVA, level of significance Duncan): 10 SEV solutions in neutral pH water; for Sweetness (mean SEV, Duncan grouping): level of significance for the grouping (Duncan): 5%; for Sweetness (mean SEV, two-way ANOVA, level of significance Duncan): superscripts = Duncan level of significance; for Mean 1 (mean sucrose equivalent value, SEV) / Median 1 (median sucrose equivalent value, SEV): equal sweet 10 SEV concentrations in neutral pH water, references 4%-14% sucrose, room temperature
Protocol: Round table evaluations were performed with test panelists. Equal sweet 10 SEV concentrations in neutral pH water were made for allulose, fructose and sucralose, as well as a composition comprising allulose, fructose and sucralose. The components of the test compositions are described in the below tables. The mixed compositions were calculated using the Beidler mixture equation for the sweeteners. The Beidler mixture equation for sweeteners is as follows: […]
The concentration of each component in the mixture in ppm is divided by SEV (c/R) and is plotted against concentration, c. The slope of the linear regression is the maximum SEV (Rmax). The y-intercept of the linear regression multiplied by Rmax is the half-maximal sweetness concentration, 1/K. Rmax and 1/K are the two parameters used in the Beidler equation.
The equal-molar mixture was tested against reference samples for the panelists to determine SEV values. […] The test samples were served in 2 ounce (approximately 60 ml) soufflé cups coded with 3-digit codes at room temperature. A two minute wait period between samples was enforced. Water and unsalted crackers was available for the panelists to clear their palates before and during testing. EyeQuestion, software distributed by Logic8 BV of Elst, The Netherlands, was used for ballot development and recording of results. Results were collected in EyeQuestion for calculating approximate SEV level of each test sample. The test products analyzed in this experiment are described below in Table 1.

Row | Compound | Sweetness relative to sucrose ([1]; % of the sweetness of sucrose) | Sweetness (mean SEV, Duncan grouping) [2] | Sweetness (mean SEV, two-way ANOVA, level of significance Duncan) [2] | Mean 1 (mean sucrose equivalent value, SEV) [2] | Median 1 (median sucrose equivalent value, SEV) [2] | Sweetness relative to sucrose ([1]; times as sweet as sucrose)
1 | O=C(CO)C(O)C(O)C(O)CO (centres unmarked) [Allulose, allulose] | around 70% | 10.14^b-c | 10.14 | 10.14 | 10 | 
2 | O=C(CO)[C@@H](O)[C@H](O)[C@H](O)CO [Fructose, fructose] |  | 10.14^b-c | 10.14 | 10.14 | 10 | 
3 | sucralose |  | 9.29^c | 9.29 | 9.286 | 10 | approximately 600 times
